{"source": "patent US20180092866A1", "about": "“SUBSTITUTED N-([1,1'-BIPHENYL]-3-YL)-[1,1'-BIPHENYL]-3-CARBOXAMIDE ANALOGS AS INHIBITORS FOR BETA-CATENIN/B-CELL LYMPHOMA 9 INTERACTIONS” (University of Utah Research Foundation, priority 2015, published 2018)", "key": {"[1]": {"test_system": "AXIN2, LGR5, LEF1, and cyclin D1 transcription in MDA-MB-231 cells", "test": "Quantitative real-time PCR, MDA-MB-231 cells", "type": "cell-based, human", "conditions": "2 and 4 μM", "experimental": "SW480 and MDA-MB-231 cells at 1×10^6/mL were treated with different concentrations of 21 for 24 h. Total RNAs were extracted with TRIzol ([…], Life Technologies), and the cDNA was synthesized with the superscript III first-strand kit (18080-051, Invitrogen). Quantitative PCR (qPCR) was performed using the iQ™ SYBR green supermix kit (170-8880, BIO-RAD) on an iQ^5 multicolor real-time PCR reaction system (BIO-RAD). The threshold cycle (CT) values were normalized to that of internal reference GAPDH. The primer pairs for human GAPDH were forward: 5′-[…]-3′, and reverse: 5′-[…]-3′, for human AXIN2 forward: 5′-[…]-3′ and reverse: 5′-[…]-3′, for human LGR5 forward: 5′-[…]-3′ and reverse: 5′-[…]-3′, for human LEF1 forward: 5′-[…]-3′ and reverse: 5′-[…] […]-3′, and for human cyclin D1 forward: 5′-[…]-3′, and revers: 5′-[…]-3′. Experiments were performed in triplicate."}, "[2]": {"molecular_target": "T1, β-catenin L159S mutant (residues 138-686) (Homo sapiens, UniProt P35222, L159S)", "T1 construct": "His6 (C); made in house; host or cells: E. coli BL21 DE3", "T1 sequence (P35222 138-686 L159S)": "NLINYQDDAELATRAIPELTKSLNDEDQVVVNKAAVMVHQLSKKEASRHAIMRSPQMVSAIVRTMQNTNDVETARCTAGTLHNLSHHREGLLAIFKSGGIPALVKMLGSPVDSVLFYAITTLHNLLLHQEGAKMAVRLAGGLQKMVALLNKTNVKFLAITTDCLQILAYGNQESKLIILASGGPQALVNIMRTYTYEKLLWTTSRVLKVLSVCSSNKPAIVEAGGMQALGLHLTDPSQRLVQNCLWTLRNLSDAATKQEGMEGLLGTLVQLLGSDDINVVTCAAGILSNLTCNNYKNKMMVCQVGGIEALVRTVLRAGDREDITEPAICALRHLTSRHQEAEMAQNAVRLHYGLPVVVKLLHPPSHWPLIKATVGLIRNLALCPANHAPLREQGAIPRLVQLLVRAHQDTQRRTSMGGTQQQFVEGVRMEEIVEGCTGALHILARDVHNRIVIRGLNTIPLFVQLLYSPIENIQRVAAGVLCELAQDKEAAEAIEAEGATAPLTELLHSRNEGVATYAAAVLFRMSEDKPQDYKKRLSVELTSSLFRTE", "test": "Isothermal titration calorimetry, β-catenin L159S", "type": "binding", "conditions": "ITC", "from_the_text": "(§1) Mutants β-catenin D145A, E155A, L156S, L159S, D145A/E155A, L156S/L159S, and L156S/L178S were generated using the overlapping PCR method. Template for the mutagenesis reactions was wide type full-length β-catenin in pET-28b. KOD hot start DNA polymerase (Novagen) was used through this experiment. Mutants were confirmed by direct sequencing (Core facility, University of Utah). Following the confirmation of the sequence, mutant β-catenin were cloned into a pET-28b vector and transformed into E. coli BL21 DE3.\n(§2) ITC measurements were performed at 28° C. using a VP-ITC (Microcal, GE Healthcare Life Sciences). […] The homogeneity of the purified proteins were examined by native gel electrophoresis. Each titration experiment was initiated by a 2 μL injection, and followed by 30-35 times injections with an 8 μL volume each. Blank titrations, which were carried out by injecting the compound into the buffer, were subtracted from each data set. The association constant KA, enthalpy change (ΔH), and stoichiometry N were obtained from fitting the data using the Origin software package. The dissociation constant Kd, the free energy change ΔG, and the entropy change ΔS were obtained from the basic thermodynamic equations, Kd=KA^−1, ΔG=−RTlnKA, and ΔG=ΔH−TΔS."}, "[3]": {"molecular_target": "T2, wild-type human β-catenin (residues 138-686) (Homo sapiens, UniProt P35222)", "T2 construct": "His6 (C); made in house; host or cells: E. coli BL21 DE3", "T2 sequence (P35222 138-686)": "T1 sequence (P35222 138-686 L159S) with S22L", "test": "Isothermal titration calorimetry, wild-type β-catenin", "type": "binding", "conditions": "ITC, 28° C.", "experimental": "as §2"}, "[4]": {"molecular_target": "T3, β-catenin L156S/L178S mutant (residues 138-686) (Homo sapiens, UniProt P35222, L156S/L178S)", "T3 construct": "His6 (C); made in house; host or cells: E. coli BL21 DE3", "T3 sequence (P35222 138-686 L156S/L178S)": "T1 sequence (P35222 138-686 L159S) with L19S, S22L, L41S", "test": "Isothermal titration calorimetry, β-catenin L156S/L178S", "type": "binding", "conditions": "ITC", "from_the_text": "as §1, §2"}}, "note": "Changes are numbered by the printed parent chain.", "data": [{"smiles": "O=C(Nc1ccc(O[C@H]2CCNC2)c(-c2ccc(F)cc2)c1)c1ccc(O[C@H]2CCNC2)c(-c2ccc(F)c(F)c2)c1", "note": "[Compound 21, (S)-3-((3′,4′-difluoro-5-((4′-fluoro-6-((S)-pyrrolidin-1-ium-3-yloxy)-[1,1′-biphenyl]-3-yl)carbamoyl)-[1,1′-biphenyl]-2-yl)oxy) pyrrolidin-1-ium chloride]", "values": [{"measurement": "inhibition of mRNA expression", "setting": "[1]", "result": "More than 50%"}, {"measurement": "Kd", "setting": "[2]", "result": "924 ± 33", "unit": "nM"}, {"measurement": "Kd", "setting": "[3]", "result": "333 ± 6", "unit": "nM"}, {"measurement": "Kd", "setting": "[4]", "result": "1590 ± 45", "unit": "nM"}]}]}
